pIC50: −log10 of the molar value.
What was measured:
[1] = target: Mitogen-activated protein kinase kinase kinase kinase 5 (Homo sapiens) (UniProt Q9Y4K4); assay: Selectivity interaction (KinomeScan (DiscoverX)) EUB0000666a MAP4K5; details: at 10 µM
[2] = target: Mitogen-activated protein kinase kinase kinase 4 (Homo sapiens) (UniProt Q9Y6R4); assay: Selectivity interaction (KinomeScan (DiscoverX)) EUB0000045b MAP3K4
[3] = target: T1, Serine/threonine-protein kinase PLK4 (Homo sapiens) (UniProt O00444); assay: Selectivity interaction (KinomeScan (DiscoverX)) EUB0000045b PLK4
T1 sequence (whole entry): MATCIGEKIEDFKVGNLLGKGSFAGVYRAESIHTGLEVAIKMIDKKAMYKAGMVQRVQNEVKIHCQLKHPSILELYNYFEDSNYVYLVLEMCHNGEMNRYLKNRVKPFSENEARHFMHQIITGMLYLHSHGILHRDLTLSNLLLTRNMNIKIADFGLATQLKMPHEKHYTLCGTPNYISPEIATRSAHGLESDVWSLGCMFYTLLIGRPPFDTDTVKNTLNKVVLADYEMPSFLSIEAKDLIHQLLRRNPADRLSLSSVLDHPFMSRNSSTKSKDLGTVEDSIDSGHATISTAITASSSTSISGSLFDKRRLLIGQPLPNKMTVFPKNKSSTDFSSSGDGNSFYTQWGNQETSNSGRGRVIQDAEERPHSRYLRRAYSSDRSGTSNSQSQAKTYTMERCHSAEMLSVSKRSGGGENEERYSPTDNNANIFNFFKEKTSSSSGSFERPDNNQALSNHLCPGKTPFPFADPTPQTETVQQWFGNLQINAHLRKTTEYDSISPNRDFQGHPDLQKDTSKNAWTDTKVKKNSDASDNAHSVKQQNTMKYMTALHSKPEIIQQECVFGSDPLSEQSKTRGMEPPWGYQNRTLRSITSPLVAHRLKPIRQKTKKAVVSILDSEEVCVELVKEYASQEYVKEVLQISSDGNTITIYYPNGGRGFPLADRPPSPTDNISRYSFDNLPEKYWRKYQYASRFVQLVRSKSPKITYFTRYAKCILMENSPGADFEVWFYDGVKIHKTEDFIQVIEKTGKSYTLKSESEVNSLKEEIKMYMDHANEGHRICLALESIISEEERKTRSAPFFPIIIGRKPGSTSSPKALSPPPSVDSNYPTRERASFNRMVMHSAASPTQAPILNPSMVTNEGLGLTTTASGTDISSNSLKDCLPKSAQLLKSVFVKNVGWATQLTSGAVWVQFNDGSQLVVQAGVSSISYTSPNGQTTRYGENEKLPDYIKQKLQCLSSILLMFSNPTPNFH

[4] = target: Cell division cycle 7-related protein kinase (Homo sapiens, UniProt O00311); assay: Selectivity interaction (Kinase panel (Enzyme activity assay)) EUB0000612a CDC7
Chain of Cell division cycle 7-related protein kinase (O00311 whole entry): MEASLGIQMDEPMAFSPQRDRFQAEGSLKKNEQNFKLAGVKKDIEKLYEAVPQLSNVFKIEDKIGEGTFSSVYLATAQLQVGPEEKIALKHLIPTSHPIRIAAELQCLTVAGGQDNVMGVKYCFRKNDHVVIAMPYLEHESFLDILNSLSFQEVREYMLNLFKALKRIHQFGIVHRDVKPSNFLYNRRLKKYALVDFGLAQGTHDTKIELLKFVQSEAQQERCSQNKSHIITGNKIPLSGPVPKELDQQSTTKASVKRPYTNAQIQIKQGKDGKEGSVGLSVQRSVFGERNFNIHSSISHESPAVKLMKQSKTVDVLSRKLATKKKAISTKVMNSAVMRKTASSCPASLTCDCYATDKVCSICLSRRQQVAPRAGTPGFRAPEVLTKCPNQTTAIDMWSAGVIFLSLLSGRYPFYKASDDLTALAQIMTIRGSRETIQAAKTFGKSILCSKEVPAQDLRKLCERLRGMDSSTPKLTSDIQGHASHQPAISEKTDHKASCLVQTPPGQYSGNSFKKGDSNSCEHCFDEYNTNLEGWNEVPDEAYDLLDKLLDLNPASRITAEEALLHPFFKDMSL

[5] = target: Interleukin-1 receptor-associated kinase 1 (Homo sapiens) (UniProt P51617); assay: Selectivity interaction (Adapta Assay) EUB0001632a IRAK1; details: at 10 µM
Chain of Interleukin-1 receptor-associated kinase 1 (Homo sapiens) (P51617 whole entry, looked up): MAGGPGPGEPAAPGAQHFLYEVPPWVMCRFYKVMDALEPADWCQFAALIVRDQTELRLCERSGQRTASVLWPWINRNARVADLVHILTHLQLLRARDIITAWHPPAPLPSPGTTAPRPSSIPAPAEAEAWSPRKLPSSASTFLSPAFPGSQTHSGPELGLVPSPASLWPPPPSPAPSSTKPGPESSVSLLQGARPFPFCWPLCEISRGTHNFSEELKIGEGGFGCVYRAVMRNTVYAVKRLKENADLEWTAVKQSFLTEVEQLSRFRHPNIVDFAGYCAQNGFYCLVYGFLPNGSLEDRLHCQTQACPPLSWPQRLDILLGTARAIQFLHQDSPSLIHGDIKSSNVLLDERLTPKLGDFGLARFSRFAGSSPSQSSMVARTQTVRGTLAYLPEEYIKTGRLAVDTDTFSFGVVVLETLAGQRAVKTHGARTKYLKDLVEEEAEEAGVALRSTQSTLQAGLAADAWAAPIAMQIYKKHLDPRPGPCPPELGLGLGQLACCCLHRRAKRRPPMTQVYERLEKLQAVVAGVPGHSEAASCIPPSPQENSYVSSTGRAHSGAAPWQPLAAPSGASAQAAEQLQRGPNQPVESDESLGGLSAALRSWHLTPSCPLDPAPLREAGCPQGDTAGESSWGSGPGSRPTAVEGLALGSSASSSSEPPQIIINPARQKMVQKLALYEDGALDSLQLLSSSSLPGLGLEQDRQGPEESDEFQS

[6] = target: T2, Interleukin-1 receptor-associated kinase 4 (Homo sapiens) (UniProt Q9NWZ3); assay: Selectivity interaction (ProQinase) EUB0000171b IRAK4
T2 sequence (whole entry): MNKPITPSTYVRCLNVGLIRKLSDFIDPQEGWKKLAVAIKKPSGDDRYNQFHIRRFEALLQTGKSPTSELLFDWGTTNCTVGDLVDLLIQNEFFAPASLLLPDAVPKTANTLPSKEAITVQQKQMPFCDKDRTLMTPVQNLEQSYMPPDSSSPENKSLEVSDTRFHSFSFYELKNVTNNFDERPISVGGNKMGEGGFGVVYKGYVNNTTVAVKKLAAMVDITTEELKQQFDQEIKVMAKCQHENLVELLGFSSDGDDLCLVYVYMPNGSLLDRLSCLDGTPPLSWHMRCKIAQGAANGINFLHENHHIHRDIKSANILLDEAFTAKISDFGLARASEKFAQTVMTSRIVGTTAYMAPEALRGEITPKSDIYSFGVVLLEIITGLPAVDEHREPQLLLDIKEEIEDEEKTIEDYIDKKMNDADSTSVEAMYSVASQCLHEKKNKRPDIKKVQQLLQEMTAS

Chain of Mitogen-activated protein kinase kinase kinase 4 (Homo sapiens) (Q9Y6R4 whole entry): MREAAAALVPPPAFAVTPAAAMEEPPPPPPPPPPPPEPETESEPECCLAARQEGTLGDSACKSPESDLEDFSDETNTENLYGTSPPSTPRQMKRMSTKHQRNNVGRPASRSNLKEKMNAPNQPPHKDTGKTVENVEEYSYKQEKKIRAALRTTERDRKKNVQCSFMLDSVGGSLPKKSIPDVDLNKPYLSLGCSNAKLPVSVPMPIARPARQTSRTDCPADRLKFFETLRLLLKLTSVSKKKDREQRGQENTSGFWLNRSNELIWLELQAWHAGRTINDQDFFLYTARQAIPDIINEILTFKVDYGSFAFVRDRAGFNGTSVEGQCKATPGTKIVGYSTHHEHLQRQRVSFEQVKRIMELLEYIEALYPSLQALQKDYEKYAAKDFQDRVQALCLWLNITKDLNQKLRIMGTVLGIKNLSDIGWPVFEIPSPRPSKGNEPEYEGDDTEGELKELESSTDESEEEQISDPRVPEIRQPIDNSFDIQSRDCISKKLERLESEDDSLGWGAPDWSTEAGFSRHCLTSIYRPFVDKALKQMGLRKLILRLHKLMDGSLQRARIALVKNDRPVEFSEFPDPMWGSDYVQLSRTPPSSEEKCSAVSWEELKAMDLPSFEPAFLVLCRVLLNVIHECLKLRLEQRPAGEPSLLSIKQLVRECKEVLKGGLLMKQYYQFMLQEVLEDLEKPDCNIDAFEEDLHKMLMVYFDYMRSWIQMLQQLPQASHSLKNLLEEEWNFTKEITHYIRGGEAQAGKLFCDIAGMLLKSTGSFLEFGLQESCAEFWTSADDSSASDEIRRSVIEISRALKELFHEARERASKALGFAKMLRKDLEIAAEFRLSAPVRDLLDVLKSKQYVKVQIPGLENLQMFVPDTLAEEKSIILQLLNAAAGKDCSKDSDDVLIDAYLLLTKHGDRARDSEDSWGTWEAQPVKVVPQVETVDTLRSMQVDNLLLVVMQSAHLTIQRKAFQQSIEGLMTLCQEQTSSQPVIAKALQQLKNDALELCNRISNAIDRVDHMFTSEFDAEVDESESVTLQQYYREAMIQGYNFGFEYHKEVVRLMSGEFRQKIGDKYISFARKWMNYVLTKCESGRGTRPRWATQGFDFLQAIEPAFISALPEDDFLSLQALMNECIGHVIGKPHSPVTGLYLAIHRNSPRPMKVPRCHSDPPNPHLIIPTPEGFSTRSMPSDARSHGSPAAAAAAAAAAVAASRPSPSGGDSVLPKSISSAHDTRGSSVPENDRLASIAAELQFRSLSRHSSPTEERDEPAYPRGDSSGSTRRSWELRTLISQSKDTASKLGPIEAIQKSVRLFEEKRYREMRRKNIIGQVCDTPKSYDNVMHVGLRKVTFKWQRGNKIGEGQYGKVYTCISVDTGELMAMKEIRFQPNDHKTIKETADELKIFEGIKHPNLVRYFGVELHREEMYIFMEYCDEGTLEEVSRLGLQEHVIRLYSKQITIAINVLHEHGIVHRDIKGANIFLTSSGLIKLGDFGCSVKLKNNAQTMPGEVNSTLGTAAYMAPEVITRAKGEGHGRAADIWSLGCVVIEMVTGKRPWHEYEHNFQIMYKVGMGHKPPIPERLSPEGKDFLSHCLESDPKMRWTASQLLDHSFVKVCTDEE
Chain of Mitogen-activated protein kinase kinase kinase kinase 5 (Homo sapiens) (Q9Y4K4 whole entry, looked up): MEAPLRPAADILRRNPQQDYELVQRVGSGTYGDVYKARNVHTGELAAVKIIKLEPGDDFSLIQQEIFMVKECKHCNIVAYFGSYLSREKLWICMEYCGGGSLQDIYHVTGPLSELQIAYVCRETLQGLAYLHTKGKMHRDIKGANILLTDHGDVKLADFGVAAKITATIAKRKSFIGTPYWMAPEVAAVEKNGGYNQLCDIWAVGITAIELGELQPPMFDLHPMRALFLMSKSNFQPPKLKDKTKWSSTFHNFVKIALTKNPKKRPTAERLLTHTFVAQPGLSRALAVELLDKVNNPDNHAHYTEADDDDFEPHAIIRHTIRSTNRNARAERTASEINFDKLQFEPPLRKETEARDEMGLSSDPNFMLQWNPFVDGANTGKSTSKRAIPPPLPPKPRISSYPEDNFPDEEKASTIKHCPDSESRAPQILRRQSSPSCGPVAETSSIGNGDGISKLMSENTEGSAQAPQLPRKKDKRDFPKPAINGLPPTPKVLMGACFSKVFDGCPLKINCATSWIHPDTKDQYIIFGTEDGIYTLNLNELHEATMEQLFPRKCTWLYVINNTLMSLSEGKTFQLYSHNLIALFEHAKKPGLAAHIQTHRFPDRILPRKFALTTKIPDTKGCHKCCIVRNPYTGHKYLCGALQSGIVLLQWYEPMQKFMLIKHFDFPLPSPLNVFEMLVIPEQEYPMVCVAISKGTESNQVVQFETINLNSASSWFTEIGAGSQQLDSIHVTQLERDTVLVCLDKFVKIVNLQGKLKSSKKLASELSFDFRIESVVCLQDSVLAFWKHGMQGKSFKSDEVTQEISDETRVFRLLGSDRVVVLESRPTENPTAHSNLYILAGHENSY

Compound: O=C(NOC[C@H](O)CO)c1ccc(F)c(F)c1Nc1ccc(I)cc1F
- % of control [1]: 69%

Compound: C=CC(=O)Nc1cc(-n2c(=O)ccc3cnc4ccc(-c5ccc(NS(C)(=O)=O)cc5)cc4c32)ccc1C
- % of control ([2]; at 1 µM): 89%
- % of control ([2]; at 10 µM): 100%
- % of control ([3]; at 1 µM): 100%
- % of control ([3]; at 10 µM): 73%

Compound: CCc1cccc(CC)c1NC(=O)c1nn(C)c2c1CCc1cnc(Nc3ccc(C(=O)NC4CCN(C)CC4)cc3OC(F)(F)F)nc1-2
- pIC50 [4]: < 5.00

Compound: Cn1cc(-n2cnc3c(NCc4nc5cc(Cl)c(Cl)cc5[nH]4)nc(N4CCOCC4)nc32)cn1
- % of inhibition [5]: -6.48%

Compound: C=CC(=O)Nc1cccc(C(=O)Nc2ccc(Nc3cc(-c4[nH]c(SC)nc4C)ccn3)cc2)c1
- % of control ([6]; at 1 µM): 85%
- % of control ([6]; at 5 µM): 56%

From ChEMBL document CHEMBL5465560, “Selectivity Literature for EUbOPEN Chemogenomic Library” (2024)
